According to patent US5650428A, “Arylsulfonamide derivative and pharmaceutical compositions and use thereof” (NKK Corporation, priority 1993, dated 1997):

What was measured:
[1] = target: T1, thromboxane A2 (TxA2) receptor (Cavia porcellus, UniProt A0A286Y4I8); test: TxA2 antagonist action by binding assay; conditions: washed guinea pig platelets, 1 nM [3H]-SQ29,548, 45 minutes at 25° C.
T1 construct: to obtain washed platelets; from tissue; host or cells: washed platelets of male Hartley guinea pigs
T1 sequence (A0A286Y4I8 1-347): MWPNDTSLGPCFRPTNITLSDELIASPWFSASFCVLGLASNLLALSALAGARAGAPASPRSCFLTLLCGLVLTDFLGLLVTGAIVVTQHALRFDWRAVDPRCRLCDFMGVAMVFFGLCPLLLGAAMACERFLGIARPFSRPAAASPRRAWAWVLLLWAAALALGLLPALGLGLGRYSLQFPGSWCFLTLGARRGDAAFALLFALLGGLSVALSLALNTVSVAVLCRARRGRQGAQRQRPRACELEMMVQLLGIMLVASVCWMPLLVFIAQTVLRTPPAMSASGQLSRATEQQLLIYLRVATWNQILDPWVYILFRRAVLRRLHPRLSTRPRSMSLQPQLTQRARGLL
Outline: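 Washed platelets from male Hartley guinea pigs, 4×10^8 cells/ml, were incubated with test compound and a labelled ligand for 45 minutes at 25 °C. Bound radioactivity was collected by GF/B filtration and scintillation counting; IC50 came from binding/control-binding ratio.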

[2] = target: T2, isolated rat artery (thoracic aorta) (Rattus norvegicus, UniProt P34978); test: Inhibitory activity of vasoconstriction of isolated rat artery; format: cell-based; conditions: pA2; rat thoracic aorta ring preparation, 37° C.; read-out: B: Inhibitory activity of vasoconstriction (rat artery) (pA2) (converted)
T2 construct: the thoracic aorta was quickly removed; from tissue; host or cells: thoracic aorta rings of male Wistar rats, endothelium 'gently cleaned'
T2 sequence (P34978 1-341): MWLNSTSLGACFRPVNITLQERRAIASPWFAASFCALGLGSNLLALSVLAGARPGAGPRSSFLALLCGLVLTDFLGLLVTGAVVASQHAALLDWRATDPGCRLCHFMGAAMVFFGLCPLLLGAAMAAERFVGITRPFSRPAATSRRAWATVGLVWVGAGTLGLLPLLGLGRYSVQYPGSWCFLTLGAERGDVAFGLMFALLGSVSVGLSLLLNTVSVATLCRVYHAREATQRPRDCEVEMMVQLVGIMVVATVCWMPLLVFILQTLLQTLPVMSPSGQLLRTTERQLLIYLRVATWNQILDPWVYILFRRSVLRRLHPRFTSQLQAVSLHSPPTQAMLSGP
Method: (2) Inhibitory Activity of Vasoconstriction of Isolated Rat Artery
Rats (Wistar; male; body weight=250-300 g) were stunned by a blow to the head and exsanguinated. Then, the thoracic aorta was quickly removed, and the connective tissue and the endothelium were gently cleaned and then ring preparation was cut. The preparations were suspended in a 25 ml organ bath which was maintained at 37° C. under an aeration of 95% O2 -5% CO2. An initial tension of 1.5 g was applied and preincubation was performed for 60 minutes. The organ bath was filled with Krebs-Henselait solution (NaCl=118, KCl=4.7, CaCl2 2.55, MgSO4 =1.18, KH2 PO4 =1.18, NaHCO3 =24.88, glucose=11.1). The constriction of the samples was ionotropicaly measured using an isometric transducer (UL-10GR, Minebea) and an amplifier (6M92, NEC SANEI) and recorded by a recticorder (RECTI-HORIZ-8K, NEC SANEI).

rat platelet = test: Inhibitory activity of aggregation in rat platelet; format: cell-based; conditions: rat platelet rich plasma, arachidonic acid (final concentration 0.5 mM) as inducer; read-out: C: Inhibitory activity of aggregation in rat platelet (IC50; μM)
Outline: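 Platelet-rich plasma was prepared from citrated (0.38% final) rat abdominal arterial blood and preincubated 1 min at 37°C. Compound was added 2 min before arachidonic acid (0.5 mM final). Light transmission change was recorded for 5 min.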

| Structure (SMILES) | IC50 [1] [µM] | Kb [2] [nM] | IC50 (rat platelet) [µM] |
| --- | --- | --- | --- |
| O=C(O)c1ccc(NC(=O)C(COC2CCCCO2)NS(=O)(=O)c2ccc(Cl)cc2)cc1 (racemic) [Example 40, (RS)-N-(4-carboxyphenyl)-2-(4-chlorobenzenesulfonylamino)-3-(tetrahydropyran-2-yloxy)propanamide] | 0.5 | 28.8 | 0.52 |
| O=C(O)Cc1ccc(NC(=O)C(COC2CCCCO2)NS(=O)(=O)c2ccc(Cl)cc2)cc1 (racemic) [Example 41, (RS)-N-(4-(carboxymethyl)phenyl)-2-(4-chlorobenzenesulfonylamino)-3-(tetrahydropyran-2-yloxy)propanamide] | 0.057 | 6.92 | 0.18 |
| O=C(O)CCc1ccc(NC(=O)C(COC2CCCCO2)NS(=O)(=O)c2ccc(Cl)cc2)cc1 (racemic) [Example 42, (RS)-N-(4-(2-carboxyethyl)phenyl)-2-(4-chlorobenzenesulfonylamino)-3-(tetrahydropyran-2-yloxy)propanamide] | 0.088 | 12.9 | 0.54 |
| O=C(O)c1cccc(NC(=O)C(COC2CCCCO2)NS(=O)(=O)c2ccc(Cl)cc2)c1 (racemic) [Example 44, (RS)-N-(3-carboxyphenyl)-2-(4-chlorobenzenesulfonylamino)-3-(tetrahydropyran-2-yloxy) propanamide] | 0.4 | 32.4 | 0.3 |
| O=C(O)Cc1ccc(NC(=O)C(COC2CCCCO2)NS(=O)(=O)c2ccc(Br)cc2)cc1 (racemic) [Example 54, (RS)-2-(4-bromobenzenesulfonylamino)-N-(4-(carboxymethyl)phenyl)-3-(tetrahydropyran-2-yloxy)propanamide] | 0.033 | 5.89 | 0.17 |
| O=C(O)Cc1ccc(NC(=O)C(COC2CCCCO2)NS(=O)(=O)c2ccc(I)cc2)cc1 (racemic) [Example 55, (RS)-N-(4-(carboxymethyl)phenyl)-2-(4-iodobenzenesulfonylamino)-3-(tetrahydropyran-2-yloxy)propanamide] | 0.016 | 3.8 | 0.53 |
| O=C(O)COc1ccc(CCNS(=O)(=O)c2ccc(Cl)cc2)cc1 [Control Compound, 4-[2-(4-chlorobenzenesulfonylamino)ethyl]-phenoxy acetic acid, reference compound] | 2 | 126 | 1.7 |
| O=C(O)c1ccc(NC(=O)[C@H](COC2CCCCO2)NS(=O)(=O)c2ccc(Cl)cc2)cc1 (stereo partly drawn) [Example 39, (S)-N-(4-carboxyphenyl)-2-(4-chlorobenzenesulfonylamino)-3-(tetrahydropyran-2-yloxy)propanamide] | 0.2 | 12.6 |  |
| O=C(O)c1cccc(NC(=O)[C@H](COC2CCCCO2)NS(=O)(=O)c2ccc(Cl)cc2)c1 (stereo partly drawn) [Example 43, (S)-N-(3-carboxyphenyl)-2-(4-chlorobenzenesulfonylamino)-3-(tetrahydropyran-2-yloxy)propanamide] |  | 41.7 |  |
